Source: article PMC6199744, “Development of Chemical Proteomics for the Folateome and Analysis of the Kinetoplastid Folateome” (ACS Infectious Diseases, 2018)
Like-named read-outs stand apart in the source and are kept apart here.

Columns and labels:
Assay type in all cases: binding
[1] = molecular target: T1, HeLa cell extract proteins (Homo sapiens, UniProt P24534)
T1 construct: endogenous in cells; host or cells: HeLa cell extract
T1 sequence (P24534 1-225): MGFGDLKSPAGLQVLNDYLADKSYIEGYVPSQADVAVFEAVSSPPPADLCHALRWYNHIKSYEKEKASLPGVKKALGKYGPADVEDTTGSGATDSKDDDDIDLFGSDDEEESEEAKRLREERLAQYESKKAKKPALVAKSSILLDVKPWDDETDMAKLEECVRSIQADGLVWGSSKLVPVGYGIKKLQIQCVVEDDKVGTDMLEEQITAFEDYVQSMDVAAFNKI

[2] = molecular target: T2, HeLa cell extract proteins (Homo sapiens, UniProt P52789)
T2 construct: endogenous in cells; host or cells: HeLa cell extract
T2 sequence (P52789 1-917): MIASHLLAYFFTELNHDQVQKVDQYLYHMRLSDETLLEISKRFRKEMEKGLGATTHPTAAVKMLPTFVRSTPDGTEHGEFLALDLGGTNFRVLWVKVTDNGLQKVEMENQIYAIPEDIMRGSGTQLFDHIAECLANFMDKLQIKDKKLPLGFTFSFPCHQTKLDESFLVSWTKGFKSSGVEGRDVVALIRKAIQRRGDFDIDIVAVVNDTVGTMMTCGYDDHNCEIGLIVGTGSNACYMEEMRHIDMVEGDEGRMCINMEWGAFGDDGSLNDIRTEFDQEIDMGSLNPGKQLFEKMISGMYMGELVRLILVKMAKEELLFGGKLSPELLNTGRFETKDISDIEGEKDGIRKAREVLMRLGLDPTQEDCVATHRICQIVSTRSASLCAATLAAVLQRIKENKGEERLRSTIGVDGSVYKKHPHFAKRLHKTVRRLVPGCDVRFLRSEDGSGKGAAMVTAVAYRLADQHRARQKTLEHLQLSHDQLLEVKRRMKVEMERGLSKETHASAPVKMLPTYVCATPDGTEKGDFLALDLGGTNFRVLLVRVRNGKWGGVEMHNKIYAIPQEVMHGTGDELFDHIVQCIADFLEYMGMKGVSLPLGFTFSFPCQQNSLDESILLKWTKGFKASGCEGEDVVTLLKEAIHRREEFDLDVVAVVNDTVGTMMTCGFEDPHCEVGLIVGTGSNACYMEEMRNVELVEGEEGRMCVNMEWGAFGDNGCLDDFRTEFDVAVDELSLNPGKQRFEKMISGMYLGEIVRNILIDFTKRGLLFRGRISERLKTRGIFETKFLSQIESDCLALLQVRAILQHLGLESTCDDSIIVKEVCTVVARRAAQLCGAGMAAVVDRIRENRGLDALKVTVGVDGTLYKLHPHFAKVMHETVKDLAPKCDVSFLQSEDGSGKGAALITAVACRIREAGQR

[3] = molecular target: T3, HeLa cell extract proteins (Homo sapiens, UniProt P08237)
T3 construct: endogenous in cells; host or cells: HeLa cell extract
T3 sequence (P08237 1-780): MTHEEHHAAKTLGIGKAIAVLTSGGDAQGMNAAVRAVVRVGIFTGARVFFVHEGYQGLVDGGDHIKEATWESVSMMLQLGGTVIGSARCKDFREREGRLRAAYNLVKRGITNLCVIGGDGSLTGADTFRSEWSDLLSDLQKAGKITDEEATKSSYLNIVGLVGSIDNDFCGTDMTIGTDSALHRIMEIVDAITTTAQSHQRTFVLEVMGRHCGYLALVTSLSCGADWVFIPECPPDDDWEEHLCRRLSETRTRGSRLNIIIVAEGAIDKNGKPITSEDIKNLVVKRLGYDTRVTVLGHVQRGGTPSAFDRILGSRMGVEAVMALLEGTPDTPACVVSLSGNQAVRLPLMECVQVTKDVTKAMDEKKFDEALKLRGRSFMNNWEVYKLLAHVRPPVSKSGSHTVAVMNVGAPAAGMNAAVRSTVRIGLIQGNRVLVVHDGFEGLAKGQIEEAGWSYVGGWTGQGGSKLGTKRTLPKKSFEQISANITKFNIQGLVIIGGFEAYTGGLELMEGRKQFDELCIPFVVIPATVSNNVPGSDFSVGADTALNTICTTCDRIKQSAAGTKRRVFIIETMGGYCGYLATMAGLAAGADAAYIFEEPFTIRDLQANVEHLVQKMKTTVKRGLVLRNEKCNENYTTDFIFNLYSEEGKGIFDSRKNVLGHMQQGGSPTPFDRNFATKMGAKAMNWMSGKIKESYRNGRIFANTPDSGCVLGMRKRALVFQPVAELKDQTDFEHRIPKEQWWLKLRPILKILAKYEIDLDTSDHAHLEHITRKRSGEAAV

[4] = molecular target: T4, HeLa cell extract proteins (Homo sapiens, UniProt P32929)
T4 construct: endogenous in cells; host or cells: HeLa cell extract

[5] = molecular target: T5, HeLa cell extract proteins (Homo sapiens, UniProt Q8NCG7)
T5 construct: endogenous in cells; host or cells: HeLa cell extract
T5 sequence (Q8NCG7 1-672): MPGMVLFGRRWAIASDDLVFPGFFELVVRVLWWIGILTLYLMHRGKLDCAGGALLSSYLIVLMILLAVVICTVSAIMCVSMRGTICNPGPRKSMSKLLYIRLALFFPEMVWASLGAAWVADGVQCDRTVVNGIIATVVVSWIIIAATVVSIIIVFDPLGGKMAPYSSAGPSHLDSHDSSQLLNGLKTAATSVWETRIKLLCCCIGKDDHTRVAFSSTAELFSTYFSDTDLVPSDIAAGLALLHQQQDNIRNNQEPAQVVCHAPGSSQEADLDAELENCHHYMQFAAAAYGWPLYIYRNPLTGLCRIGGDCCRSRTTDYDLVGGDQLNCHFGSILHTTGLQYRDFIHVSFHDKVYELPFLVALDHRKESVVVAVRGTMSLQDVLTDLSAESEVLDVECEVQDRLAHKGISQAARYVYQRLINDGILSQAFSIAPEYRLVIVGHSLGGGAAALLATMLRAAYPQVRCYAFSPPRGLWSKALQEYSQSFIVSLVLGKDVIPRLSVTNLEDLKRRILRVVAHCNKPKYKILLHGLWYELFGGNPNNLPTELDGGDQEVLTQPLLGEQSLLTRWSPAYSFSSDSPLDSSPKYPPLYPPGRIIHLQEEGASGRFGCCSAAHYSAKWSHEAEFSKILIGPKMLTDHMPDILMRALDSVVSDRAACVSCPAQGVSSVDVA

[6] = molecular target: T6, HeLa cell extract proteins (Homo sapiens, UniProt O43865)
T6 construct: endogenous in cells; host or cells: HeLa cell extract

[7] = molecular target: T7, HeLa cell extract proteins (Homo sapiens, UniProt Q15046)
T7 construct: endogenous in cells; host or cells: HeLa cell extract
T7 sequence (Q15046 whole entry): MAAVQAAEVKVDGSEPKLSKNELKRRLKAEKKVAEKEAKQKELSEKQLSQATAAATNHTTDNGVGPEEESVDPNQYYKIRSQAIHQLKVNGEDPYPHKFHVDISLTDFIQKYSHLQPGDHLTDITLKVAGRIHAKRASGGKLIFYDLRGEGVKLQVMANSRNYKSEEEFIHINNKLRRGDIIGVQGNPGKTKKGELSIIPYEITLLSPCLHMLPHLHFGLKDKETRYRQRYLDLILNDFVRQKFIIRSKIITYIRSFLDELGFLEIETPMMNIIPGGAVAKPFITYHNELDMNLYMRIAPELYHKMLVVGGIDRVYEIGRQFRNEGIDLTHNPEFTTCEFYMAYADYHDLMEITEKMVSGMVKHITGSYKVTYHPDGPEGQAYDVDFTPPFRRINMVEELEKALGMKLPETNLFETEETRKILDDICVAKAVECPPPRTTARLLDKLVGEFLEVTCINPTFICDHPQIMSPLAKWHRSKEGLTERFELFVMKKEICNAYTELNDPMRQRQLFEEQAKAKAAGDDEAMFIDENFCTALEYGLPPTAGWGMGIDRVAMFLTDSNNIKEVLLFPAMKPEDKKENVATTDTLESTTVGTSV

T6 sequence (O43865 whole entry): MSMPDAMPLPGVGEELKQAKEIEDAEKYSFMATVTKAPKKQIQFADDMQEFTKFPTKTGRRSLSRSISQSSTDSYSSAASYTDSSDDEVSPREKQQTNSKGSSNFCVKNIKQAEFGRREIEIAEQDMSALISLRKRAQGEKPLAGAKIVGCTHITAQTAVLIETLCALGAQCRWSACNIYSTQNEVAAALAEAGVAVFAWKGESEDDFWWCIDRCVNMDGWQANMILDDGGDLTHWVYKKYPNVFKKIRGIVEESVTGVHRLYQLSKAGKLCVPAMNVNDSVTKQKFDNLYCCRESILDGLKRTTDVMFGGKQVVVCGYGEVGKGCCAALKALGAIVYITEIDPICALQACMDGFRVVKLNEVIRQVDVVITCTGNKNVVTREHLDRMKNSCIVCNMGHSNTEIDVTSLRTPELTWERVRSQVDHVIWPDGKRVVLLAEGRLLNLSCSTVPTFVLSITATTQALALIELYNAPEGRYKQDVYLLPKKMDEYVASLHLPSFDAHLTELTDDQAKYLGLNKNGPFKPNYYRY
T4 sequence (P32929 whole entry): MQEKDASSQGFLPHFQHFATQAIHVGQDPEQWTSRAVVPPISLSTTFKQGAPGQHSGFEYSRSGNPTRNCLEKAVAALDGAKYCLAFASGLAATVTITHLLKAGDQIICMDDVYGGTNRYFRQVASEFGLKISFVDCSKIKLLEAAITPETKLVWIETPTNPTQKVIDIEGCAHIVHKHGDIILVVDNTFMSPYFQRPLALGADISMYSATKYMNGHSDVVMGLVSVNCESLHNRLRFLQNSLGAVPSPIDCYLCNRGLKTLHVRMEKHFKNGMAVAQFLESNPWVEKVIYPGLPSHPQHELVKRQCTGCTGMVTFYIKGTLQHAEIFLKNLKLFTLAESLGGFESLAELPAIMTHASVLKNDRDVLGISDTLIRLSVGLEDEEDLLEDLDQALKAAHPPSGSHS

Structure (SMILES) | fold changes relative to vehicle control ([1]; protein EEF1B2, HeLa) | fold changes relative to vehicle control ([2]; HeLa, protein HK2) | fold changes relative to vehicle control ([3]; HeLa, captured protein PFKM) | fold changes relative to vehicle control ([4]; protein CTH, HeLa) | fold changes relative to vehicle control ([5]; HeLa, protein DAGLB) | fold changes relative to vehicle control ([6]; HeLa, captured protein AHCYL1) | fold changes relative to vehicle control ([7]; HeLa, captured protein KARS) | fold changes relative to vehicle control [1] | fold changes relative to vehicle control [2] | fold changes relative to vehicle control [3] | fold changes relative to vehicle control [4] | fold changes relative to vehicle control [5] | fold changes relative to vehicle control [6] | fold changes relative to vehicle control [7] | fold changes relative to vehicle control ([2]; protein HK2, HeLa) | fold changes relative to vehicle control ([3]; captured protein PFKM, HeLa) | fold changes relative to vehicle control ([5]; captured protein DAGLB, HeLa) | fold changes relative to vehicle control ([6]; protein AHCYL1, HeLa) | fold changes relative to vehicle control ([7]; protein KARS, HeLa)
Nc1nc2c(c(=O)[nH]1)N(C=O)C(CNc1ccc(C(=O)N[C@@H](CCC(=O)O)C(=O)O)cc1)CN2 (stereo partly shown) [LEU, leucovorin] | 0.84 | 1 | 1.01 | 0.82 | 1.01 | 1.12 | 0.91 | – | – | – | – | – | – | – | – | – | – | – | –
Nc1nc2[nH]cc(CCc3ccc(C(=O)N[C@@H](CCC(=O)O)C(=O)O)cc3)c2c(=O)[nH]1 [PTX, pemetrexed] | – | – | – | – | – | – | – | 1 | 1.02 | 0.98 | 0.85 | 0.88 | 1.08 | 0.96 | – | – | – | – | –
CCCCCCOc1ccc(Cc2cnc(N)nc2N)cc1 [compound 1] | 1.03 | – | – | 0.86 | – | – | – | – | – | – | – | – | – | – | 1.11 | 1.15 | 1.02 | 1.1 | 0.74
CCCCCCOc1cccc(Cc2cnc(N)nc2N)c1 [compound 2] | 1.63 | – | – | 1.43 | – | – | – | – | – | – | – | – | – | – | 1.43 | 1.2 | 1.07 | 1.59 | 1.12
Nc1nc2cccc(-c3ccccc3)c2n1Cc1ccc(Cl)c(Cl)c1 [compound 3] | 1.02 | – | – | 0.91 | – | – | – | – | – | – | – | – | – | – | 0.9 | 1.01 | 0.97 | 0.94 | 1.13
NCCOCCOCC(=O)Nc1nc2ncc(CNc3ccc(C(=O)NC(CCC(=O)O)C(=O)O)cc3)nc2c(=O)[nH]1 (stereo not shown) [compound 6] | 1.07 | 1.21 | 1.02 | 0.95 | 1.07 | 1.25 | 1.04 | – | – | – | – | – | – | – | – | – | – | – | –
NCCCNc1ccc(C(=O)NC(CCC(=O)O)C(=O)O)cc1 (stereo not shown) [compound 7] | 0.87 | 1.03 | 1.02 | 0.87 | 1.04 | 1.03 | 1.07 | – | – | – | – | – | – | – | – | – | – | – | –
